In patent publication US20250235545A1, “POLYPEPTIDE CONJUGATE AND USE THEREOF” (SHANGHAI CHIXI BIOMEDICAL TECHNOLOGY CO., LTD, priority 2024, published 2025):
≈ marks a conversion by molar mass, not a printed value. Read-outs that look alike come from different tables or passages of the source.

Experiments:
[1] = MTD determination in mice (Examples 27, 36, 44); format: in vivo; conditions: mice, monitored for 14 d
Description: Test animals: 6-8 weeks old mice, all female; mice were grouped randomly, with six mice in each group, administered with drugs at different concentration gradients separately and monitored for 14 d. A mouse was euthanized at a loss of 20% of its initial weight and deemed to have died of poisoning.

[2] = system: sarcoma SJSA-1 tumor model; conditions: 5 mg/kg once a week for three weeks
Method: Test objective: To investigate the antitumor efficacy of the above compounds in an animal tumor model of sarcoma SJSA-1.
(§1) Test drug: Polypeptide conjugate, Irinotecan, Belotecan and normal saline control group.
(§2) Test animals: 6-8 weeks old BALB/c mice, all female.
(§3) SJSA-1 cells were purchased from ATCC and cultured in a DMEM medium containing 10% fetal bovine serum at 37° C. in 5% CO2. Passaging was performed every three days, and cells within 15 generations were used. 2×10^7 corresponding cells were injected into right chests of nude mice subcutaneously. After a volume of the tumors reached at least 100 mm^3, the mice were grouped randomly, with three mice in each group. Then treatment was started, and the day when the treatment was started was the first day. […] The control group was administered with normal saline. Administration was performed once a week for three weeks.
as §3

[3] = system: SKBR3 (breast cancer tissue); test: cells; format: cell-based; conditions: CCK8, 48 h; for IC50: Homo sapiens, SK-BR-3
Method: (§4) Different types of cells were cultured with complete media (RPMI1640 (DMEM high sugar medium)+10% fetal bovine serum+1XP/S+sodium pyruvate 1 mM solution) in an incubator at 37° C. and 5% CO2 until the cells grew to a sufficient number, and the cells were collected, centrifuged at 1,000 g for 5 min, resuspended with an appropriate volume of a 10% RMPI1640 (DMEM high sugar medium) medium and counted. In a 96-well culture plate, 100 μL of cell culture fluid containing different concentrations of drugs was added, control wells (0.1% DMSO) with only corresponding drug solvents without drugs, as well as blank wells (Blank) with only the medium but without cells were set, and three parallel wells were set in each group. After that, the cells after cell counting were inoculated onto 96-well culture plates, with 100 μL of cell suspension per well, and an inoculation concentration of the cells was 5,000 cells (100 μL)/well. The plates were then cultured in a CO2 (5%) incubator at 37° C. for 48 h. After 48 h, 10 μL of a cell proliferation staining reagent (CCK8) was added to each well, the plates were incubated in a cell incubator for around 2 h, and an absorbance at 450 nm was detected.
(§5) Cell survival rates and median inhibitory concentrations of the drugs on the cells were calculated.
as §4, with “serum+1×P/S+sodium” for “serum+1XP/S+sodium”, “adjusted to an appropriate density.” for “counted.”
(§6) Cell survival rates and median inhibitory concentrations (IC50) of the drugs on the cells were calculated.

A2780 (ovarian cancer) = test: cells; format: cell-based; conditions: CCK8, 48 h; for IC50: Homo sapiens, A2780
Method: as §4, §5
as §4, with “serum+1×P/S+sodium” for “serum+1XP/S+sodium”, “adjusted to an appropriate density.” for “counted.”
as §6

SJSA-1 (sarcoma tissue) = test: cells; format: cell-based; conditions: CCK8, 48 h; for IC50: Homo sapiens, SJSA-1
Method: as §4, §5
as §4, with “serum+1×P/S+sodium” for “serum+1XP/S+sodium”, “adjusted to an appropriate density.” for “counted.”
as §6

[4] = system: A549 (non-small cell lung cancer); test: cells; format: cell-based; conditions: CCK8, 48 h; for IC50: Homo sapiens, A549
Method: as §4, §5
as §4, with “serum+1×P/S+sodium” for “serum+1XP/S+sodium”, “adjusted to an appropriate density.” for “counted.”
as §6

[5] = system: colo320 (colorectal cancer tissue); test: cells; format: cell-based; conditions: CCK8, 48 h, Table 6
Method: as §4, with “serum+1×P/S+sodium” for “serum+1XP/S+sodium”, “adjusted to an appropriate density.” for “counted.”
as §6

[6] = system: colo320 colorectal cancer tumor model
Method: Test objective: To investigate the antitumor efficacy of the above compounds in an animal tumor model of colo320 colorectal cancer.
as §1, §2
Passaging was performed every three days, and cells within 15 generations were used. 7.5×10^6 corresponding cells were injected into right chests of nude mice subcutaneously. After a volume of the tumors reached at least 120 mm^3, the mice were grouped randomly, with three mice in each group. Then treatment was started, and the day when the treatment was started was the first day. […] The control group was administered with normal saline. Administration was performed once a week for four weeks.

[7] = 5 mg/kg once a week for four weeks, Table 3
[8] = 5 mg/kg once a week for four weeks, Table 8
[9] = Table 13 (Example 42), dose 5 mg/kg, once a week for four weeks, BALB/c mice
[10] = Table 14 (Example 43), dose 5 mg/kg, once a week for four weeks, BALB/c mice

Row | SMILES | Mouse weight (%) ([2]; Table 2) | SJSA-1 (sarcoma tissue) mean tumor volume (mm^3) ([2]; Table 2) | SJSA-1 (sarcoma) Growth rate (%) ([2]; Table 2) | Mouse weight (%) ([2]; Table 7) | SJSA-1 (sarcoma tissue) growth rate (%) ([2]; Table 7) | SJSA-1 (sarcoma tissue) mean tumor volume (mm^3) ([2]; Table 7) | Mouse weight (%) [6, 7] [%] | colo320 (colorectal cancer cell) growth rate (%) [6, 7] [%] | colo320 (colorectal cancer cell) mean tumor volume (mm^3) [6, 7] [mm^3] | Mouse weight (%) [6, 8] [%] | colo320 (colorectal cancer cell) growth rate (%) [6, 8] [%] | colo320 (colorectal cancer cell) mean tumor volume (mm^3) [6, 8] [mm^3] | Mouse weight (%) [6, 9] [%] | colo320 (colorectal cancer cell) growth rate (%) [6, 9] [%] | colo320 (colorectal cancer cell) mean tumor volume (mm^3) [6, 9] [mm^3] | also measured
1 | CC[C@@]1(O)C(=O)OCc2c1cc1n(c2=O)Cc2c-1nc1ccccc1c2CCNC(C)C [Belotecan, reference compound] | −9 | 1253.2 | 1084.38 | −9 | 1084.38 | 1253.2 | −9 | 869.93 | 963.5 | −9 | 869.93 | 963.5 | −9 | 869.93 | 963.5 | MTD ([1]; female, mouse, in vivo, Table 15 (Example 44), six per group, read-out: MTD): 15 mg/kg; MTD ([1]; female, mouse, in vivo, Table 4, read-out: MTD): 15 mg/kg; MTD ([1]; female, mouse, in vivo, Table 9, read-out: MTD): 15 mg/kg; IC50 ([3]; Table 1, read-out: IC50 SKBR3 (breast cancer tissue)): 9.8 ng/mL (≈ 0.0226 µM); IC50 ([3]; Table 6, read-out: IC50 Breast cancer tissue (SKBR3)): 9.8 ng/mL (≈ 0.0226 µM); IC50 (A2780 (ovarian cancer); Table 1, read-out: IC50 A2780 (ovarian cancer)): 4.4 ng/mL (≈ 0.0101 µM); IC50 (A2780 (ovarian cancer); Table 6, read-out: IC50 Ovarian cancer tissue (A2780)): 4.4 ng/mL (≈ 0.0101 µM); IC50 (SJSA-1 (sarcoma tissue); Table 1, read-out: IC50 SJSA-1 (sarcoma tissue)): 2.1 ng/mL (≈ 0.00484 µM); IC50 (SJSA-1 (sarcoma tissue); Table 6, read-out: IC50 Sarcoma tissue (SJSA-1)): 2.1 ng/mL (≈ 0.00484 µM); IC50 ([4]; Table 1, read-out: IC50 A549 (non-small cell lung cancer)): 6.6 ng/mL (≈ 0.0152 µM); IC50 ([4]; Table 6, read-out: IC50 Non-small cell lung cancer tissue (A549)): 6.6 ng/mL (≈ 0.0152 µM); IC50 ([5]; Homo sapiens, COLO 320): 14 ng/mL (≈ 0.0323 µM); Mouse weight (%) [6, 10]: −9%; colo320 (colorectal cancer cell) growth rate (%) [6, 10]: 869.93%; colo320 (colorectal cancer cell) mean tumor volume (mm^3) [6, 10]: 963.5 mm^3
2 | CC[C@@]1(O)C(=O)OCc2c1cc1n(c2=O)Cc2c-1nc1ccccc1c2CCNC [D1] | −6 | 1432 | 1235.57 | −6 | 1235.57 | 1432 | −7 | 1012.22 | 1121.1 | −7 | 1012.22 | 1121.1 | −7 | 1012.22 | 1121.1 | MTD ([1]; Table 4): 25 mg/kg; MTD ([1]; Table 9): 25 mg/kg; IC50 SKBR3 (breast cancer tissue) ([3]; Table 1): 50 ng/mL (≈ 0.123 µM); IC50 Breast cancer tissue (SKBR3) ([3]; Table 6): 50 ng/mL (≈ 0.123 µM); IC50 A2780 (ovarian cancer) (A2780 (ovarian cancer); Table 1): 18 ng/mL (≈ 0.0444 µM); IC50 Ovarian cancer tissue (A2780) (A2780 (ovarian cancer); Table 6): 18 ng/mL (≈ 0.0444 µM); IC50 SJSA-1 (sarcoma tissue) (SJSA-1 (sarcoma tissue); Table 1): 28 ng/mL (≈ 0.0691 µM); IC50 Sarcoma tissue (SJSA-1) (SJSA-1 (sarcoma tissue); Table 6): 28 ng/mL (≈ 0.0691 µM); IC50 A549 (non-small cell lung cancer) ([4]; Table 1): 27 ng/mL (≈ 0.0666 µM); IC50 Non-small cell lung cancer tissue (A549) ([4]; Table 6): 27 ng/mL (≈ 0.0666 µM); IC50 Colorectal cancer tissue (colo320) [5]: 40 ng/mL (≈ 0.0987 µM)
